According to patent US9302999B2, “Substituted triazoles as herbicides” (E. I. DU PONT DE NEMOURS AND COMPANY, priority 2012, dated 2016):

Key:
Type in all cases: in vivo
[1] = tested on: poinsettia, wild (wild poinsettia, Euphorbia heterophylla); assay: Test F pre-/postemergence: poinsettia, wild
Source text: (§1) Seeds of plant species selected from corn (Zea mays), soybean (Glycine max), velvetleaf (Abutilon theophrasti), lambsquarters (Chenopodium album), poinsettia, wild (wild poinsettia, Euphorbia heterophylla), pigweed, palmer (palmer pigweed, Amaranthus palmeri), waterhemp (common waterhemp, Amaranthus rudis), surinam grass (Brachiaria decumbens), crabgrass, Brazil (Brazilian crabgrass, Digitaria horizontalis), panicum, fall (fall panicum Panicum dichotomiflorum), crabgrass, large (large crabgrass, Digitaria sanguinalis), foxtail, giant (giant foxtail, Setaria faberii), foxtail, green (green foxtail Setaria viridis), goosegrass (Eleusine indica), ragweed (common ragweed, Ambrosia elatior), barnyardgrass (Echinochloa crus-galli), sandbur (southern sandbur, Cenchrus echinatus), arrowleaf sida (Sida rhombifolia), ryegrass, Italian (Italian ryegrass, Lolium multiflorum), dayflower, VA (Virginia (VA) dayflower, Commelina virginica), field bindweed (Convolvulus arvensis), cocklebur (common cocklebur, Xanthium strumarium), morningglory (Ipomoea coccinea), nightshade (eastern black nightshade, Solanum ptycanthum), kochia (Kochia scoparia), nutsedge, yellow (yellow nutsedge, Cyperus esculentus), johnsongrass (Sorghum halepense), smartweed (ladysthumb smartweed, Polygonum persicaria), and beggarticks (hairy beggarticks, Bidens pilosa), were planted into a silt loam soil and treated preemergence with test chemicals formulated in a non-phytotoxic solvent mixture which included a surfactant. At the same time, plants selected from these crop and weed species and also pigweed (Amaranthus retroflexus), waterhemp_RES1 (ALS/Triazine resistant common waterhemp, Amaranthus rudis) and waterhemp_RES2 (ALS/HPPD resistant common waterhemp, Amaranthus rudis) were planted in pots containing a planting medium comprising spaghnum peat moss, vermiculite, wetting agent and starter nutrients treated with postemergence applications of some of the test chemicals formulated in the same manner. Plants ranged in height from 2 to 18 cm for postemergence treatments (1- to 4-leaf stage).
(§2) Treated plants and controls were maintained in a greenhouse for 14 to 21 days, after which time all species were compared to controls and visually evaluated. Plant response ratings, summarized in Table E, are based on a scale of 0 to 100 where 0 is no effect and 100 is complete control. A dash (-) response means no test result.

[2] = tested on: ragweed (common ragweed, Ambrosia elatior); assay: Test F pre-/postemergence: ragweed; settings: Preemergence
Source text: as §1, §2

[3] = tested on: nightshade (eastern black nightshade, Solanum ptycanthum); assay: Test F pre-/postemergence: nightshade; settings: Preemergence
Method in brief: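 Preemergence treatment of seeds sown in silt loam soil, and postemergence treatment of plants 2–18 cm tall (1- to 4-leaf stage), with compounds in non-phytotoxic solvent plus surfactant. Greenhouse 14–21 days, then visual rating versus controls on 0–100 scale (100 = complete control).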

[4] = tested on: bluegrass (annual bluegrass, Poa annua); assay: Test D pre-/postemergence: bluegrass
Method in brief: (§3)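 Species were sown in silt loam and sprayed preemergence, or grown in peat/vermiculite medium and sprayed postemergence at the 1- to 4-leaf stage (2–18 cm), with compounds in a surfactant-containing solvent. Injury was visually rated against untreated controls after 14–21 days, on a 0 (no effect) to 100 (complete control) scale.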

[5] = tested on: chickweed (common chickweed, Stellaria media); assay: Test D pre-/postemergence: chickweed
Method in brief: as §3

[6] = tested on: field violet (Viola arvensis); assay: Test D pre-/postemergence: field violet
Method in brief: as §3

[7] = tested on: barley, spring (spring barley, Hordeum vulgare); assay: Test D pre-/postemergence: barley, spring
Method in brief: as §3

[8] = Preemergence, 16 g ai/ha, scale 0 to 100, 0 no effect, 100 complete control
[9] = Preemergence, 31 g ai/ha, scale 0 to 100, 0 no effect, 100 complete control
[10] = Preemergence, 125 g ai/ha, scale 0 to 100
[11] = Preemergence, 250 g ai/ha, scale 0 to 100
[12] = 16 g ai/ha, scale 0 to 100, 0 no effect, 100 complete control
[13] = 31 g ai/ha, scale 0 to 100, 0 no effect, 100 complete control
[14] = Postemergence, 31 g ai/ha, scale 0 to 100 (0 no effect, 100 complete control)
[15] = Postemergence, 62 g ai/ha, scale 0 to 100 (0 no effect, 100 complete control)
[16] = Postemergence, 125 g ai/ha, scale 0 to 100, 0 no effect, 100 complete control
[17] = Postemergence, 16 g ai/ha, scale 0 to 100
[18] = Preemergence, 62 g ai/ha, scale 0 to 100

## COc1nn(-c2cccc(F)c2)nc1Cc1ccnc(C(F)(F)F)c1 [Compound 139]
[1]; [8]
  Plant response rating, Poinsettia, Wild: 0
[1]; [9]
  Plant response rating, Poinsettia, Wild: 20
[1]; [10]
  Plant response rating, Poinsettia, Wild: 75
[1]; [11]
  Plant response rating, Poinsettia, Wild: 80
[2]; [12]
  Plant response rating, Ragweed: 0
[2]; [13]
  Plant response rating, Ragweed: 0
[2]; 125 g ai/ha, scale 0 to 100
  Plant response rating, Ragweed: 0
[2]; 250 g ai/ha, scale 0 to 100
  Plant response rating, Ragweed: 0
[3]; [12]
  Plant response rating, Nightshade: 20
[3]; [13]
  Plant response rating, Nightshade: 35
[3]; 125 g ai/ha, scale 0 to 100
  Plant response rating, Nightshade: 100
[3]; 250 g ai/ha, scale 0 to 100
  Plant response rating, Nightshade: 100

## Cc1nn(-c2ccc(F)cc2F)nc1Oc1ccnc(C(F)(F)F)c1 [Compound 146]
[1]; [8]
  Plant response rating, Poinsettia, Wild: 20
[1]; [9]
  Plant response rating, Poinsettia, Wild: 20
[1]; [10]
  Plant response rating, Poinsettia, Wild: 40
[1]; [11]
  Plant response rating, Poinsettia, Wild: 40
[2]; [12]
  Plant response rating, Ragweed: 0
[2]; [13]
  Plant response rating, Ragweed: 0
[2]; 125 g ai/ha, scale 0 to 100
  Plant response rating, Ragweed: 0
[2]; 250 g ai/ha, scale 0 to 100
  Plant response rating, Ragweed: 25
[3]; [12]
  Plant response rating, Nightshade: 0
[3]; [13]
  Plant response rating, Nightshade: 10
[3]; 125 g ai/ha, scale 0 to 100
  Plant response rating, Nightshade: 65
[3]; 250 g ai/ha, scale 0 to 100
  Plant response rating, Nightshade: 100

## Cc1nn(-c2ccc(C(F)(F)F)c(F)c2)nc1Oc1ccnc(C(F)(F)F)c1 [Compound 148]
[4]; [14]
  Plant response rating: Bluegrass: 15
[4]; [15]
  Plant response rating: Bluegrass: 25
[4]; [16]
  Plant response rating: Bluegrass: 70
[4]; [17]
  Plant response rating, Bluegrass: 5
[4]; [8]
  Plant response rating, Bluegrass: 0
[4]; [9]
  Plant response rating, Bluegrass: 15
[4]; [18]
  Plant response rating, Bluegrass: 60
[4]; [10]
  Plant response rating, Bluegrass: 50
[5]; [14]
  Plant response rating: Chickweed: 70
[5]; [15]
  Plant response rating: Chickweed: 80
[5]; [16]
  Plant response rating: Chickweed: 90
[5]; [17]
  Plant response rating, Chickweed: 60
[5]; [8]
  Plant response rating, Chickweed: 25
[5]; [9]
  Plant response rating, Chickweed: 60
[5]; [18]
  Plant response rating, Chickweed: 70
[5]; [10]
  Plant response rating, Chickweed: 100
[6]; [14]
  Plant response rating: Field Violet: 95
[6]; [15]
  Plant response rating: Field Violet: 95
[6]; [16]
  Plant response rating: Field Violet: 95
[6]; [17]
  Plant response rating, Field Violet: 90
[6]; [8]
  Plant response rating, Field Violet: 90
[6]; [9]
  Plant response rating, Field Violet: 100
[6]; [18]
  Plant response rating, Field Violet: 95
[6]; [10]
  Plant response rating, Field Violet: 100
[7]; [14]
  Plant response rating: Barley, Spring: 15
[7]; [15]
  Plant response rating: Barley, Spring: 20
[7]; [16]
  Plant response rating: Barley, Spring: 25
[7]; [17]
  Plant response rating, Barley, Spring: 10
[7]; [8]
  Plant response rating, Barley, Spring: 0
[7]; [9]
  Plant response rating, Barley, Spring: 0
[7]; [18]
  Plant response rating, Barley, Spring: 5
[7]; [10]
  Plant response rating, Barley, Spring: 5
[1]; [8]
  Plant response rating, Poinsettia, Wild: 0
[1]; [9]
  Plant response rating, Poinsettia, Wild: 0
[1]; [10]
  Plant response rating, Poinsettia, Wild: 20
[1]; [11]
  Plant response rating, Poinsettia, Wild: 100
[2]; [12]
  Plant response rating, Ragweed: 0
[2]; [13]
  Plant response rating, Ragweed: 0
[2]; 125 g ai/ha, scale 0 to 100
  Plant response rating, Ragweed: 75
[2]; 250 g ai/ha, scale 0 to 100
  Plant response rating, Ragweed: 75
[3]; [12]
  Plant response rating, Nightshade: 0
[3]; [13]
  Plant response rating, Nightshade: 0
[3]; 125 g ai/ha, scale 0 to 100
  Plant response rating, Nightshade: 98
[3]; 250 g ai/ha, scale 0 to 100
  Plant response rating, Nightshade: 98

## CCc1nn(-c2ccc(F)cc2)nc1Cc1ccnc(C(F)(F)F)c1 [Compound 154]
[1]; [8]
  Plant response rating, Poinsettia, Wild: 0
[1]; [9]
  Plant response rating, Poinsettia, Wild: 0
[1]; [10]
  Plant response rating, Poinsettia, Wild: 25
[1]; [11]
  Plant response rating, Poinsettia, Wild: 85
[2]; [12]
  Plant response rating, Ragweed: 0
[2]; [13]
  Plant response rating, Ragweed: 0
[2]; 125 g ai/ha, scale 0 to 100
  Plant response rating, Ragweed: 0
[2]; 250 g ai/ha, scale 0 to 100
  Plant response rating, Ragweed: 40
[3]; [12]
  Plant response rating, Nightshade: 0
[3]; [13]
  Plant response rating, Nightshade: 10
[3]; 125 g ai/ha, scale 0 to 100
  Plant response rating, Nightshade: 90
[3]; 250 g ai/ha, scale 0 to 100
  Plant response rating, Nightshade: 100

## CCc1nn(-c2ccc(C(F)(F)F)cc2)nc1Cc1ccnc(C(F)(F)F)c1 [Compound 155]
[4]; [14]
  Plant response rating: Bluegrass: 35
[4]; [15]
  Plant response rating: Bluegrass: 75
[4]; [16]
  Plant response rating: Bluegrass: 90
[4]; [17]
  Plant response rating, Bluegrass: 20
[4]; [8]
  Plant response rating, Bluegrass: 15
[4]; [9]
  Plant response rating, Bluegrass: 15
[4]; [18]
  Plant response rating, Bluegrass: 60
[4]; [10]
  Plant response rating, Bluegrass: 85
[5]; [14]
  Plant response rating: Chickweed: 70
[5]; [15]
  Plant response rating: Chickweed: 75
[5]; [16]
  Plant response rating: Chickweed: 100
[5]; [17]
  Plant response rating, Chickweed: 65
[5]; [8]
  Plant response rating, Chickweed: 35
[5]; [9]
  Plant response rating, Chickweed: 50
[5]; [18]
  Plant response rating, Chickweed: 100
[5]; [10]
  Plant response rating, Chickweed: 100
[6]; [14]
  Plant response rating: Field Violet: 100
[6]; [15]
  Plant response rating: Field Violet: 100
[6]; [16]
  Plant response rating: Field Violet: 95
[6]; [17]
  Plant response rating, Field Violet: 95
[6]; [8]
  Plant response rating, Field Violet: 90
[6]; [9]
  Plant response rating, Field Violet: 95
[6]; [18]
  Plant response rating, Field Violet: 95
[6]; [10]
  Plant response rating, Field Violet: 100
[7]; [14]
  Plant response rating: Barley, Spring: 15
[7]; [15]
  Plant response rating: Barley, Spring: 25
[7]; [16]
  Plant response rating: Barley, Spring: 35
[7]; [17]
  Plant response rating, Barley, Spring: 10
[7]; [8]
  Plant response rating, Barley, Spring: 0
[7]; [9]
  Plant response rating, Barley, Spring: 5
[7]; [18]
  Plant response rating, Barley, Spring: 5
[7]; [10]
  Plant response rating, Barley, Spring: 10
[1]; [10]
  Plant response rating, Poinsettia, Wild: 80
[1]; [11]
  Plant response rating, Poinsettia, Wild: 100
[2]; 125 g ai/ha, scale 0 to 100
  Plant response rating, Ragweed: 50
[2]; 250 g ai/ha, scale 0 to 100
  Plant response rating, Ragweed: 80
[3]; 125 g ai/ha, scale 0 to 100
  Plant response rating, Nightshade: 100
[3]; 250 g ai/ha, scale 0 to 100
  Plant response rating, Nightshade: 100

## CCc1nn(-c2ccc(C(F)(F)F)cc2)nc1Oc1ccnc(C(F)(F)F)c1 [Compound 169]
[1]; Postemergence, 250 g ai/ha, scale 0 to 100
  Plant response rating, Poinsettia, Wild: 85
[1]; [17]
  Plant response rating, Poinsettia, Wild: 50
[1]; Postemergence, 31 g ai/ha, scale 0 to 100
  Plant response rating, Poinsettia, Wild: 60
[1]; Postemergence, 62 g ai/ha, scale 0 to 100
  Plant response rating, Poinsettia, Wild: 60
[1]; Postemergence, 125 g ai/ha, scale 0 to 100
  Plant response rating, Poinsettia, Wild: 70
[1]; [8]
  Plant response rating, Poinsettia, Wild: 0
[1]; [9]
  Plant response rating, Poinsettia, Wild: 0
[1]; [10]
  Plant response rating, Poinsettia, Wild: 40
[1]; [11]
  Plant response rating, Poinsettia, Wild: 98
[2]; [12]
  Plant response rating, Ragweed: 0
[2]; [13]
  Plant response rating, Ragweed: 0
[2]; 125 g ai/ha, scale 0 to 100
  Plant response rating, Ragweed: 60
[2]; 250 g ai/ha, scale 0 to 100
  Plant response rating, Ragweed: 100
[3]; [12]
  Plant response rating, Nightshade: 0
[3]; [13]
  Plant response rating, Nightshade: 80
[3]; 125 g ai/ha, scale 0 to 100
  Plant response rating, Nightshade: 100
[3]; 250 g ai/ha, scale 0 to 100
  Plant response rating, Nightshade: 100
